# Columns and labels:
# [1] = molecular target: T1, human NTPDase2 (Homo sapiens, UniProt Q9Y5L3); details: analogue 100 μM as substrate; activity with 100 μM ATP set as 100%
# T1 sequence (Q9Y5L3 1-495): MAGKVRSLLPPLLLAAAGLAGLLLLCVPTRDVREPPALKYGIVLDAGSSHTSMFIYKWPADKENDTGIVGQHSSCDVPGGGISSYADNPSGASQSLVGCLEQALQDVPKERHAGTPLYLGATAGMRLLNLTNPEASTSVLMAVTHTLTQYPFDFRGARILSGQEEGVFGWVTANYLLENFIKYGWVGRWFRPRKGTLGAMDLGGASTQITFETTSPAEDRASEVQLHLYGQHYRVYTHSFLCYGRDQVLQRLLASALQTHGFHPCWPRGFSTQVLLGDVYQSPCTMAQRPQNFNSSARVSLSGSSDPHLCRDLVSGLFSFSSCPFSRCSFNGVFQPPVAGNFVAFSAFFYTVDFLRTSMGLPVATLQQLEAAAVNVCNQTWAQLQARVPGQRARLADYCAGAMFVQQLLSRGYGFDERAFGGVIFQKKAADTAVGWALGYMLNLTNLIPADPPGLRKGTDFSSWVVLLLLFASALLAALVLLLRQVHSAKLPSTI
# [2] = molecular target: T2, TNAP (Homo sapiens, UniProt P05186); assay: TNAP stability assay: hydrolysis by TNAP; type: in vitro ADME; details: 1 h, pH 9, 100 μM (data not shown)
# T2 sequence (P05186 18-502 limits assumed): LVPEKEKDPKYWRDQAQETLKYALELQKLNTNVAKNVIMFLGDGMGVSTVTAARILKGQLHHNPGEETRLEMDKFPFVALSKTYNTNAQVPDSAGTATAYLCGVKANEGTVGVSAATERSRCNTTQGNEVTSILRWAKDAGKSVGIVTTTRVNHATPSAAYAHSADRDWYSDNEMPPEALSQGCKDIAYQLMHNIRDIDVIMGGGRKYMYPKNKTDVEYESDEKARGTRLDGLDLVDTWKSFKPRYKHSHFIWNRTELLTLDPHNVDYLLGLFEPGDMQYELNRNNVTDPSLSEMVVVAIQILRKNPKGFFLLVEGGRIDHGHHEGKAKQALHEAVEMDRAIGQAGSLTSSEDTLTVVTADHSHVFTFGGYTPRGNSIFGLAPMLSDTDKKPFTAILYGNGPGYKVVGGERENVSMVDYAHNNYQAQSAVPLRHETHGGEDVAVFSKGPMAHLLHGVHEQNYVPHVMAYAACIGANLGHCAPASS
# [3] = molecular target: T3, human NTPDase3 (Homo sapiens, UniProt O75355); details: analogue 100 μM as substrate; activity with 100 μM ATP set as 100%
# T3 sequence (O75355 1-529): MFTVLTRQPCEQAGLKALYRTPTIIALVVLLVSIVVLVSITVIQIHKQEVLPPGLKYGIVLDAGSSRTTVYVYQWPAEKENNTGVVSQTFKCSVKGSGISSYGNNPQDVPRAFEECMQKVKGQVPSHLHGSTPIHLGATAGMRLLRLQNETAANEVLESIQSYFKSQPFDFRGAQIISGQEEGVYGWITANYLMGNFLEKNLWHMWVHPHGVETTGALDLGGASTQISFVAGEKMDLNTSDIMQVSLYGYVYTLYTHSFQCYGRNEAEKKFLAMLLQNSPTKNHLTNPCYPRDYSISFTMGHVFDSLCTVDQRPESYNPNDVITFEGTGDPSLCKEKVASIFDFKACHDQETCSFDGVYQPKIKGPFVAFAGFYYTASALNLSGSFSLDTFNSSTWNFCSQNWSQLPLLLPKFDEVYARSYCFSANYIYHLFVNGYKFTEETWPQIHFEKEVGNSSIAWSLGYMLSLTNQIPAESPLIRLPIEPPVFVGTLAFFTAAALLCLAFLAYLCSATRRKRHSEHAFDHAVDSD
# [4] = molecular target: T2, TNAP; assay: Inhibition of TNAP activity; type: biochemical; details: analogue 100 μM
# [5] = molecular target: T4, human NPP1 (Homo sapiens, UniProt P22413); assay: Inhibition of NPP1, pNP-TMP as substrate; type: biochemical; details: Dixon and Cornish–Bowden methods
# T4 sequence (P22413 1-925): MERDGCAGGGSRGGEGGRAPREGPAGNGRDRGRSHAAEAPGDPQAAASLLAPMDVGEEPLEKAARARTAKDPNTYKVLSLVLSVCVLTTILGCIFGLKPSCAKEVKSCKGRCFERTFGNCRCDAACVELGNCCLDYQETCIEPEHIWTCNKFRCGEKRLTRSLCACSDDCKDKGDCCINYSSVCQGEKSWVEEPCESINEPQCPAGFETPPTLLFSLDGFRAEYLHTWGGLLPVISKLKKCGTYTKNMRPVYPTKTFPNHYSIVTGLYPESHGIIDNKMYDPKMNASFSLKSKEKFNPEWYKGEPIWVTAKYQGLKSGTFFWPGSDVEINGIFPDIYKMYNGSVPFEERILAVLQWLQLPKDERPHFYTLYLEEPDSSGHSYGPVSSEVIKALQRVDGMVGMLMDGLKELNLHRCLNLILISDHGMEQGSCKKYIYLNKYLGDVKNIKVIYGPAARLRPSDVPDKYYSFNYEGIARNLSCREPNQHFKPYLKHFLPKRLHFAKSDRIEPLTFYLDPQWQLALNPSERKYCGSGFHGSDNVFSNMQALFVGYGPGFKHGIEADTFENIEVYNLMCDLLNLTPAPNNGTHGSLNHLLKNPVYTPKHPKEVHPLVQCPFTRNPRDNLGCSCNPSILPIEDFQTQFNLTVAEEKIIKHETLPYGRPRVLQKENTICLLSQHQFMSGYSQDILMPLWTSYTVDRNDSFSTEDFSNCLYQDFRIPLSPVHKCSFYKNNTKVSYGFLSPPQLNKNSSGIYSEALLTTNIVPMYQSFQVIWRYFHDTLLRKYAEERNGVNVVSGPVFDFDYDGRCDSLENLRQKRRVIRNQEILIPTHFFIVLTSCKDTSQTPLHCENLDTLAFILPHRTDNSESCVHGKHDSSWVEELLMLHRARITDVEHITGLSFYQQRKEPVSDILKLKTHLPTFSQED
SMILES,"relative activity (%) ± SD of ATP hydrolysis, NTPDase2 [1] [%]",hydrolysis by TNAP [2],"relative activity (%) ± SD of ATP hydrolysis, NTPDase3 [3] [%]",inhibition of TNAP [4],type of inhibition [5]
Nc1ncnc2c1ncn2[C@@H]1O[C@H](CO[P@](O)(=S)OP(=O)(O)C(Cl)(Cl)P(=O)(O)O)[C@@H](O)[C@H]1O [2a],5.2 ± 0.1,fully stable,5.2 ± 0.2,8–17%,"mixed-type inhibition, predominantly competitive"
Nc1ncnc2c1ncn2[C@@H]1O[C@H](COP(=O)(O)CP(=O)(O)OP(O)(O)=S)[C@@H](O)[C@H]1O [compound 3],4.7 ± 0.2,2.5%,4.8 ± 0.2,8–17%,"mixed-type inhibition, predominantly competitive"
